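These data come from cells grown in 96-well plates and exposed to compound for 48 hours at five concentrations. GI50 marks 50% less growth.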 Activity calls are given as the source filed them. No stated cut-off is given here; in the data, active = GI50 up to about 1.1 µM and inactive = higher.
Experiments:
Assay in all cases: growth of human tumour cells (NCI), 48 h
KM12 = tested on: KM12
SF-295 = tested on: SF-295
UO-31 = tested on: UO-31
OVCAR-3 = tested on: OVCAR-3
SF-268 = tested on: SF-268
SN12C = tested on: SN12C
COLO 205 = tested on: COLO 205
U-251 = tested on: U-251
A549 = tested on: A549
NCI-H460 = tested on: NCI-H460
UACC-257 = tested on: UACC-257
OVCAR-8 = tested on: OVCAR-8
OVCAR-4 = tested on: OVCAR-4
NCI-H23 = tested on: NCI-H23
SK-OV-3 = tested on: SK-OV-3
IGROV-1 = tested on: IGROV-1
SK-MEL-2 = tested on: SK-MEL-2
HOP-62 = tested on: HOP-62
UACC-62 = tested on: UACC-62

Measured: GI50

CC1(CO)COS(=O)OC1 (stereo not given)
inactive: KM12 > 100 µM | SF-295 > 100 µM | UO-31 > 100 µM | OVCAR-3 > 100 µM | SF-268 > 100 µM | SN12C > 100 µM | COLO 205 > 100 µM | U-251 > 100 µM | A549 > 100 µM | NCI-H460 > 100 µM | UACC-257 > 100 µM | OVCAR-8 > 100 µM | OVCAR-4 > 100 µM | NCI-H23 > 100 µM | SK-OV-3 > 100 µM

Nc1ccc2cc(S(=O)(=O)O)cc(O)c2c1/N=N/c1ccc(NC(=O)Nc2ccc(/N=N/c3c(N)ccc4cc(S(=O)(=O)O)cc(O)c34)c(S(=O)(=O)O)c2)cc1S(=O)(=O)O
inactive: KM12 > 100 µM | SF-295 > 100 µM | UO-31 > 100 µM | OVCAR-3 > 100 µM | SF-268 > 100 µM | SN12C > 100 µM | IGROV-1 > 100 µM | COLO 205 > 100 µM | SK-MEL-2 > 100 µM | U-251 > 100 µM | A549 > 100 µM | NCI-H460 > 100 µM | HOP-62 > 100 µM | UACC-257 > 100 µM | OVCAR-8 > 100 µM | OVCAR-4 > 84.1 µM | NCI-H23 > 100 µM | SK-OV-3 > 100 µM | UACC-62 > 100 µM

O=C(CCC(NC(=O)OCc1ccccc1)C(=O)OCc1ccccc1)Nc1cccc(OCc2ccccc2)c1 (stereo not given)
inactive: KM12 34.8 µM | SF-295 59.6 µM | OVCAR-3 22.3 µM | SF-268 28.6 µM | SN12C 20.2 µM | IGROV-1 30.3 µM | COLO 205 15.7 µM | U-251 30.3 µM | A549 35.7 µM | NCI-H460 23.6 µM | HOP-62 28.6 µM | UACC-257 23.7 µM | OVCAR-8 26.5 µM | OVCAR-4 30.2 µM | NCI-H23 20.3 µM | SK-OV-3 67.3 µM | UACC-62 32.8 µM

CC1(C)[C@H](C(=O)O)N2C(=O)[C@@H](NS(=O)(=O)c3ccc([N+](=O)[O-])cc3)[C@H]2S1(=O)=O
inactive: KM12 > 100 µM | SF-295 > 100 µM | UO-31 > 100 µM | OVCAR-3 > 100 µM | SF-268 > 100 µM | SN12C > 100 µM | IGROV-1 > 100 µM | COLO 205 > 100 µM | SK-MEL-2 > 100 µM | U-251 > 100 µM | A549 > 100 µM | NCI-H460 > 100 µM | HOP-62 > 100 µM | UACC-257 > 100 µM | OVCAR-8 > 100 µM | OVCAR-4 > 100 µM | NCI-H23 > 100 µM | SK-OV-3 > 100 µM | UACC-62 > 100 µM

COc1cc(=O)oc(/C=C/C=O)c1C
inactive: KM12 21.9 µM | SF-295 15.8 µM | UO-31 20.8 µM | OVCAR-3 19 µM | SF-268 13.6 µM | SN12C 8.24 µM | IGROV-1 30.4 µM | COLO 205 16.4 µM | U-251 14.3 µM | A549 > 100 µM | HOP-62 19.5 µM | UACC-257 18.9 µM | OVCAR-8 26.3 µM | OVCAR-4 17 µM | NCI-H23 21.9 µM | SK-OV-3 27.2 µM | UACC-62 16 µM

FC(F)(F)c1ccc2c(c1)nc1n2C(c2c(Cl)cccc2Cl)SC1 (stereo not given)
inactive: KM12 12.2 µM | SF-295 16.6 µM | UO-31 15.4 µM | OVCAR-3 13.2 µM | SF-268 19.1 µM | SN12C 16.9 µM | IGROV-1 17.3 µM | SK-MEL-2 17.7 µM | U-251 19.3 µM | A549 18.2 µM | NCI-H460 16.8 µM | HOP-62 15.4 µM | UACC-257 18.9 µM | OVCAR-8 25.4 µM | OVCAR-4 18.3 µM | NCI-H23 20.5 µM | SK-OV-3 25.8 µM | UACC-62 14.4 µM
